{"source": "ChEMBL document CHEMBL5325443", "about": "“Discovery and structure-activity relationship of Morita-Baylis-Hillman adducts as larvicides against dengue mosquito vector, Aedes aegypti (Diptera: Culicidae)” (2023)", "key": {"Aedes aegypti [1]": {"system": "Aedes aegypti", "assay": "Larvicidal activity against fourth instar Aedes aegypti larvae assessed as mortality rate at 100 ug/ml measured after 48 hrs relative to control", "assay_type": "functional"}, "Aedes aegypti [2]": {"system": "Aedes aegypti", "assay": "Larvicidal activity against fourth instar Aedes aegypti larvae assessed as lethal concentration measured after 48 hrs", "assay_type": "functional"}, "Aedes aegypti [3]": {"system": "Aedes aegypti", "assay": "Induction of morphological changes in fourth instar Aedes aegypti larvae assessed as damage in thorax at LC50 concentration measured after 48 hrs by scanning electron microscopic analysis", "assay_type": "functional"}, "Aedes aegypti [4]": {"system": "Aedes aegypti", "assay": "Induction of morphological changes in fourth instar Aedes aegypti larvae assessed as modification in terminal abdomen in 6th to 8th segment at LC50 concentration measured after 48 hrs by scanning electron microscopic analysis", "assay_type": "functional, organism-based"}, "Aedes aegypti [5]": {"system": "Aedes aegypti", "assay": "Induction of morphological changes in fourth instar Aedes aegypti larvae assessed as loss in anal papillae at LC50 concentration measured after 48 hrs by scanning electron microscopic analysis", "assay_type": "functional, organism-based"}}, "note": "Activity calls are given as the source filed them. No cut-off for these calls is given here.", "data": [{"smiles": "C=C(C(=O)OC)C(O)/C=C/c1ccccc1", "note": "(stereo not given)", "values": [{"measurement": "mortality at 100 µg/mL", "setting": "Aedes aegypti [1]", "value": 71.7, "unit": "%"}]}, {"smiles": "C=C(C(=O)OC)C(O)c1ccc(Br)cc1", "note": "(stereo not given)", "values": [{"measurement": "mortality at 100 µg/mL", "setting": "Aedes aegypti [1]", "value": 51.7, "unit": "%"}]}, {"smiles": "C=C(C(=O)OC)C(O)c1ccc(Cl)cc1", "note": "(stereo not given)", "values": [{"measurement": "mortality at 100 µg/mL", "setting": "Aedes aegypti [1]", "value": 81.7, "unit": "%"}, {"measurement": "LC50", "setting": "Aedes aegypti [2]", "value": 88.2, "unit": "µg/mL"}]}, {"smiles": "C=C(C(=O)OCC)C(O)c1nccs1", "note": "(stereo not given)", "values": [{"measurement": "mortality at 100 µg/mL", "setting": "Aedes aegypti [1]", "value": 10, "unit": "%"}]}, {"smiles": "C=C(C(=O)OCC)C(O)c1ccccc1Cl", "note": "(stereo not given)", "values": [{"measurement": "mortality at 100 µg/mL", "setting": "Aedes aegypti [1]", "value": 85, "unit": "%"}, {"measurement": "LC50", "setting": "Aedes aegypti [2]", "value": 86.7, "unit": "µg/mL"}]}, {"smiles": "CC[C@H]1CCC[C@H](O[C@H]2CC[C@H](N(C)C)[C@@H](C)O2)[C@@H](C)C(=O)C2=C[C@@H]3[C@@H](C=C[C@@H]4C[C@@H](O[C@@H]5O[C@@H](C)[C@H](OC)[C@@H](OC)[C@H]5OC)C[C@@H]34)[C@@H]2CC(=O)O1", "note": "[SPINOSYN A]", "values": [{"measurement": "LC50", "setting": "Aedes aegypti [2]", "value": 0.02, "unit": "µg/mL"}]}, {"smiles": "C=C(C(=O)OC)C(O)c1ccccc1Cl", "note": "(stereo not given)", "values": [{"measurement": "mortality at 100 µg/mL", "setting": "Aedes aegypti [1]", "value": 21.7, "unit": "%"}]}, {"smiles": "C=C(C(=O)OC)C(O)c1ccc2ccccc2c1", "note": "(stereo not given)", "values": [{"measurement": "mortality at 100 µg/mL", "setting": "Aedes aegypti [1]", "value": 88.3, "unit": "%"}, {"measurement": "LC50", "setting": "Aedes aegypti [2]", "value": 77.7, "unit": "µg/mL"}]}, {"smiles": "CC[C@H]1CCC[C@H](O[C@H]2CC[C@H](NC)[C@@H](C)O2)[C@@H](C)C(=O)C2=C[C@@H]3[C@@H](C=C[C@@H]4C[C@@H](O[C@@H]5O[C@@H](C)[C@H](OC)[C@@H](OC)[C@H]5OC)C[C@@H]34)[C@@H]2CC(=O)O1", "values": [{"measurement": "LC50", "setting": "Aedes aegypti [2]", "value": 0.02, "unit": "µg/mL"}]}, {"smiles": "C=C(C(=O)OC)C(O)c1ccc(C)cc1", "note": "(stereo not given)", "values": [{"measurement": "mortality at 100 µg/mL", "setting": "Aedes aegypti [1]", "value": 10, "unit": "%"}]}, {"smiles": "C=C(C(=O)OC)C(O)c1cc(OC)c(OC)c(OC)c1", "note": "(stereo not given)", "values": [{"measurement": "mortality at 100 µg/mL", "setting": "Aedes aegypti [1]", "value": 16.7, "unit": "%"}]}, {"smiles": "C=C(C(=O)OC)C(O)c1ccc(-c2ccccc2)cc1", "note": "(stereo not given)", "values": [{"measurement": "mortality at 100 µg/mL", "setting": "Aedes aegypti [1]", "value": 93.3, "unit": "%"}, {"measurement": "LC50", "setting": "Aedes aegypti [2]", "value": 41.4, "unit": "µg/mL"}, {"measurement": "Activity", "setting": "Aedes aegypti [3]", "value": 100, "unit": "%"}, {"measurement": "Activity", "setting": "Aedes aegypti [4]", "value": "Active"}, {"measurement": "Activity", "setting": "Aedes aegypti [5]", "value": "Active"}]}, {"smiles": "CC[C@H]1CCC[C@H](O[C@H]2CC[C@H](N(C)C)[C@@H](C)O2)[C@@H](C)C(=O)C2=C[C@@H]3[C@@H](C=C(C)[C@@H]4C[C@@H](O[C@@H]5O[C@@H](C)[C@H](OC)[C@@H](OC)[C@H]5OC)C[C@@H]34)[C@@H]2CC(=O)O1", "note": "[SPINOSYN D]", "values": [{"measurement": "LC50", "setting": "Aedes aegypti [2]", "value": 0.02, "unit": "µg/mL"}]}, {"smiles": "C=C(C(=O)OCC)C(O)c1ccc([N+](=O)[O-])cc1", "note": "(stereo not given)", "values": [{"measurement": "mortality at 100 µg/mL", "setting": "Aedes aegypti [1]", "value": 16.7, "unit": "%"}]}, {"smiles": "CC(COc1ccc(Oc2ccccc2)cc1)Oc1ccccn1", "note": "(stereo not given) [PYRIPROXYFEN]", "values": [{"measurement": "LC50", "setting": "Aedes aegypti [2]", "value": 1.75, "unit": "µg/mL"}]}, {"smiles": "C=C(C(=O)OCC)C(O)c1ccc(OC)cc1", "note": "(stereo not given)", "values": [{"measurement": "mortality at 100 µg/mL", "setting": "Aedes aegypti [1]", "value": 21.7, "unit": "%"}]}, {"smiles": "COP(=S)(OC)Oc1ccc(Sc2ccc(OP(=S)(OC)OC)cc2)cc1", "note": "[TEMEFOS]", "values": [{"measurement": "LC50", "setting": "Aedes aegypti [2]", "value": 4.25, "unit": "µg/mL"}]}, {"smiles": "C=C(C(=O)OC)C(O)c1ccc(F)cc1", "note": "(stereo not given)", "values": [{"measurement": "mortality at 100 µg/mL", "setting": "Aedes aegypti [1]", "value": 16.7, "unit": "%"}]}]}
